Source: patent publication US8563545B2, “Compound useful for the treatment of degenerative and inflammatory diseases” (Galapagos NV, priority 2009, dated 2013)
Blank lines part the entries; values can stand above or below the compound they belong to.

Experiments:
[1] = tested on: JAK1-dependent signaling pathway (IFNα induced pSTAT1) in human whole blood; assay: tissue or blood; details: read-out: pIC50 for inhibiting the INFα induced increase of pSTAT1 levels (converted)
Method: The samples were incubated at 37° C. for 30 min.
Absorbance was measured at 450 nm.

rat CIA model = assay: Rat collagen induced arthritis (CIA) model; format: in vivo; design: key to Clinical Assessment End point score / Clinical Assessment AUC Score / Paw swelling / Larsen' Score: a “*” indicates that there was a statistically significant improvement in the score, p 0.05 vs. untreated control
Method: Completed Freund's adjuvant (CFA) and incomplete Freund's adjuvant (IFA) were purchased from Difco. Bovine collagen type II (CII), lipopolysaccharide (LPS), and Enbrel was obtained from Chondrex (Isle d'Abeau, France); Sigma (P4252, L′Isle d'Abeau, France), Whyett (25 mg injectable syringe, France) Acros Organics (Palo Alto, Calif.), respectively. All other reagents used were of reagent grade and all solvents were of analytical grade.
Dark Agouti rats (male, 7-8 weeks old) were obtained from Harlan Laboratories (Maison-Alfort, France). Rats were kept on a 12 hr light/dark cycle (0700-1900). Temperature was maintained at 22° C., and food and water were provided ad libitum.
One day before the experiment, CII solution (2 mg/mL) was prepared with 0.05 M acetic acid and stored at 4° C. Just before the immunization, equal volumes of adjuvant (IFA) and CII were mixed by a homogenizer in a pre-cooled glass bottle in an ice water bath. Extra adjuvant and prolonged homogenization may be required if an emulsion is not formed. 0.2 mL of the emulsion was injected intradermally at the base of the tail of each rat on day 1, a second booster intradermal injection (CII solution at 2 mg/mL in CFA 0.1 mL saline) was performed on day 9. This immunization method was modified from published methods (Sims et al, 2004; Jou et al., 2005).
The therapeutic effects of the compounds were tested in the rat CIA model. Rats were randomly divided into equal groups and each group contained 10 rats. All rats were immunized on day 1 and boosted on day 9. Therapeutic dosing lasted from day 16 to day 30. The negative control group was treated with vehicle (MC 0.5%) and the positive control group with Enbrel (10 mg/kg, 3× week, s.c.). A compound of interest was typically tested at 3 doses, e.g. 3, 10, 30 mg/kg, p.o.
Arthritis is scored according to the method of Khachigian 2006, Lin et al 2007 and Nishida et al. 2004). The swelling of each of the four paws is ranked with the arthritic score as follows: 0-no symptoms; 1-mild, but definite redness and swelling of one type of joint such as the ankle or wrist, or apparent redness and swelling limited to individual digits, regardless of the number of affected digits; 2-moderate redness and swelling of two or more types of joints; 3-severe redness and swelling of the entire paw including digits; 4-maximally inflamed limb with involvement of multiple joints (maximum cumulative clinical arthritis score 16 per animal) (Nishida et al., 2004).
The area under the curve (AUC) from day 1 to day 14 was calculated for each individual rat. The AUC of each animal was divided by the average AUC obtained for the vehicle in the study from which the data on that animal was obtained and multiplied by 100 (i.e. the AUC was expressed as a percentage of the average vehicle AUC per study).
The clinical score difference for each animal was divided by the average clinical score difference obtained for the vehicle in the study from which the data on that animal was obtained and multiplied by 100 (i.e. the difference was expressed as a percentage of the average clinical score difference for the vehicle per study).
X-ray photos were taken of the hind paws of each individual animal. […]

[2] = tested on: JAK1-dependent pathway (IL-6 stimulated STAT1 phosphorylation in CD4+ lymphocytes) in human whole blood; assay: cells; details: Lymphocyte, read-out: pIC50 in the inhibition of STAT1 phosphorylation (converted)
Method: Therefore, blood was taken from human volunteers who gave informed consent. Blood was then equilibrated for 30 minutes at 37° C. under gentle rocking, then aliquoted in Eppendorf tubes. Compound was added at different concentrations and incubated at 37° C. for 30 minutes under gentle rocking and subsequently stimulated for 20 minutes at 37° C. under gentle rocking with interleukin 6 (IL-6) for JAK1-dependent pathway stimulation or GM-CSF for JAK2-dependent pathway stimulation. Phospho-STAT1 and phospho-STAT5 were then evaluated using FACS analysis.
The increase in phosphorylation of STAT1 by IL-6 in lymphocytes was measured using anti phospho-STAT1 antibody by FACS.
A 3-fold dilution series of the compound was prepared in DMSO (10 mM stock solution). Control-treated samples received DMSO instead of compound. All samples were incubated with a 1% final DMSO concentration.
Human blood was collected in heparinized tubes. The blood was divided in aliquots of 148.54 μl. […]
50,000 total events were counted and Phospho-STAT1 positive cells were measured after gating on CD4+ cells, in the lymphocyte gate. Data were analyzed using the FACSDiva software and the percentage inhibition of IL-6 stimulation calculated on the percentage of positive cells for phospho-STAT1 on CD4+ cells.

[3] = 0.1 mg/kg/day, normalized score
[4] = 0.3 mg/kg/day, normalized score

IC50 [1]: 0.589 µM
IC50 [2]: 0.832 µM
Compound: O=C(Nc1nc2cccc(-c3ccc(CN4CCS(=O)(=O)CC4)cc3)n2n1)C1CC1 [Compound 1, Cyclopropanecarboxylic acid {5-[4-(1,1-dioxo-1-thiomorpholin-4-ylmethyl)-phenyl]-[1,2,4]triazolo [1,5-a]pyridin-2-yl}-amide]
improvement in efficacy over Compound 2 when the oral doses are compared (rat CIA model): 100 fold
Clinical Assessment AUC Score (rat CIA model; [3]): *
Clinical Assessment End point score (rat CIA model; [3]): *
Paw swelling (rat CIA model; 0.3 mg/kg/day): *
Clinical Assessment AUC Score (rat CIA model; [4]): *
Clinical Assessment End point score (rat CIA model; [4]): *
Paw swelling (rat CIA model; 1 mg/kg/day): *
Clinical Assessment AUC Score (rat CIA model; 1 mg/kg/day, normalized score): *
Clinical Assessment End point score (rat CIA model; 1 mg/kg/day, normalized score): *
Larsen' Score (rat CIA model; 3 mg/kg/day): *
Paw swelling (rat CIA model; 3 mg/kg/day): *
Clinical Assessment AUC Score (rat CIA model; 3 mg/kg/day, normalized score): *
Clinical Assessment End point score (rat CIA model; 3 mg/kg/day, normalized score): *
normalized clinical score values (AUC or difference from day 1 to day 14) (rat CIA model; dose of 0.1 mg/kg): statistically significant improvements
paw swelling readout (rat CIA model; dose of 0.3 mg/kg): statistically significant increase
Larsen score (rat CIA model; dose of 3 mg/kg): statistically significant increase

Compound: O=C(Nc1nc2cccc(-c3ccc(CN4CCOCC4)cc3)n2n1)C1CC1 [Compound 2, N-(5-(4-(morpholinomethyl)phenyl)-[1,2,4]triazolo[1,5-a]pyridin-2-yl)cyclopropanecarboxamide]
Clinical Assessment End point score (rat CIA model; 10 mg/kg/day): *
Clinical Assessment End point score (rat CIA model; 30 mg/kg/day): *
Larsen' Score (rat CIA model; 30 mg/kg/day): *
Paw swelling (rat CIA model; 30 mg/kg/day): *
normalized clinical score values (rat CIA model; dose of 10 mg/kg): statistically significant improvements
Larsen score (rat CIA model; dose of 30 mg/kg): statistically significant increase
paw swelling readout (rat CIA model; dose of 30 mg/kg): statistically significant increase
